In US7601754B2, “Flavonoid compounds as therapeutic antioxidants” (Antoxis Limited, priority 2002, dated 2009):
Where “and” joins values, the source holds several entries; their conditions need not be identical. Identical values can stand only once.

How the values were obtained:
[1] = Kinetic measurements: stopped-flow ESR, reduction of galvinoxyl radical; format: physicochemical; conditions: for Second order rate constants (k2) for the reduction of galvinoxyl radical / reactivity with galvinoxyl (in words): ethanol; for Second order rate constants (k2) for the reduction of galvinoxyl radical: 20° C.±2° C., flavonoid 0.2 mM + galvinoxyl 0.2 mM, unit printed only in b437; for decrease in rate of reaction with galvinoxyl relative to quercetin: fold decrease, versus quercetin; for reactivity with galvinoxyl (in words): kinetics of reduction
Experimental: (§1) Within a biological system where a number of polyphenols may be present at similar concentrations, antioxidant efficacy may be predominantly governed by reaction kinetics rather than stoichiornetry. Consequently, the antioxidant potential of thirteen flavonoids and vitamin E were assessed and their kinetic and stochiometric reduction of a synthetic radical using stopped-flow electron spin resonance (ESR) spectroscopy has been compared. The radical used was galvinoxyl (Galv-O°), (2,6-di-tert-butyl-α-(3,5-di-tert-butyl-4-oxo-2,5-cyclohexadien-1-ylidene)-p-tolyloxy) shown below:
Galv-O°+Phenol-OH≈Galv-OH+phenol-O°
The process is governed by the O—H bond dissociation enthalpy of the donor.
Ethanolic solutions of flavonoid (0.2 mM) and galvinoxyl (0.2 mM) were de-oxygenated under a stream of nitrogen gas. Aliquots (6 ml) were transferred to Hamilton gas-tight syringes (10 ml) coupled to a pneumatic ram and connected to a two-stream ESR quartz flow-cell. In situ reaction at 20° C.±2° C. between the flavonoid and galvinoxyl was initiated by rapidly evacuating the syringes. […] Decay curves were obtained by operating in timesweep mode with the static field set at the resonance maximum of the galvinoxyl signal.

[2] = Stoichiometric measurements: ESR, reduction of excess galvinoxyl radical; format: physicochemical; conditions: galvinoxyl radicals reduced per molecule, ethanol, flavonoid 0.1 mM + galvinoxyl 0.5 mM, 5 minutes from mixing
Experimental: as §1
Ethanolic solutions of flavonoids (0.1 mM) were prepared. Aliquots (3 ml) of an ethanolic galvinoxyl solution (0.5 mM) were mixed with an equal volume of flavonoid solution then transferred to an ESR quartz cell. The spectra and reaction stoichiometry were evaluated. In brief, the spectra of the unreacted galvinoxyl were obtained 5 minutes from mixing, by which time equilibration was complete. The galvinoxyl concentrations remaining were calculated by double integration of the signal and comparing with the control experiment where ethanol was added to the galvinoxyl solution instead of flavonoid solution.
The stoichiometry of the reaction of these compounds with the galvinoxyl free radical was determined by adding the flavonoid, or vitamin E, to an excess of the radical and allowing the reaction to proceed to the endpoint.

[3] = test system: rat liver microsomes from vitamin E-deficient rats; assay: Inhibition of TBARS production in rat liver microsomes from vitamin E-deficient rats; format: biochemical; conditions: for TBARS production (Mean): after 20 minutes incubation with Fe(II)-ADP/ascorbate, normalised to a tocopherol reading of 20, 30 minutes pre-incubation, higher reading = lower protection; for membrane protection against TBARS production (in words): over the 20 minute oxidation period
Experimental: Inhibition of TBARS production in rat liver microsomes from vitamin E-deficient rats by pre-incubation with target antioxidant and related compounds. Microsomes are subcellular fractions containing membrane fragments. In vitamin E-deficient rats, microsomes are especially prone to oxidative free radical damage. This can be quantified in terms of the production of thiobarbituric acid reactive substances (TBARS) which result from radical-mediated destruction of the polyunsaturated fatty acid constituents. Consequently, this is a useful biological model to determine the efficacy of phytochemicals as antioxidant membrane protectants. Vitamin E-deficient microsomal suspensions were incubated for 30 minutes with one of myricetin, sample A, sample B, sample C (as shown below) or d-alpha-tocopherol, or with a compound 9c, 9d, 9e, 9e*, 9f, 9g, 9g*, 9h, 9i* or 9j (prepared as described above in Examples 1 to 10). […] TBARS production was then measured by HPLC.

Molecule | Second order rate constants (k2) for the reduction of galvinoxyl radical [1] [mol^−1 dm^3 s^−1] | Reaction Stoichiometry for the reduction of galvinoxyl radical [2] | TBARS production (Mean) [3] | further results
O=C1c2c(O)cc(O)cc2O[C@H](c2ccc(O)c(O)c2)[C@H]1O (racemic) [Taxifolin] | 337 ± 32 | 2.82 ± 0.05 |  | decrease in rate of reaction with galvinoxyl relative to quercetin [1]: 7 fold; reduction in rate compared with catechin ([1]; fold reduction, versus catechin): 5 fold; Reaction Stoichiometry for the reduction of galvinoxyl radical ([2]; listed as taxifolin): 2.8
CCCCc1ccc2c(=O)c(O)c(-c3cc(O)c(O)c(O)c3)oc2c1 [9d, 7-Butyl-3-hydroxy-2-(3,4,5-trihydroxy-phenyl)-chromen-4-one] |  |  | 121.743 | 
CCCCCCCCc1ccc2c(=O)c(O)c(-c3cc(O)c(O)c(O)c3)oc2c1 [9f, 7-Octyl-3-hydroxy-2-(3,4,5-trihydroxy-phenyl)-chromen-4-one] |  |  | 46.1879 | 
O=c1c(O)c(-c2cc(O)c(O)c(O)c2)oc2cc(O)ccc12 [Control A] |  |  | 158.348 | 
O=c1c(O)c(-c2cc(O)c(O)cc2O)oc2ccccc12 [Control C] |  |  | 186.6221 | 
O=c1c(O)c(-c2ccc(O)c(O)c2O)oc2ccccc12 [Control D] |  |  | 172.0899 | 
O=c1c(O)c(-c2ccccc2O)oc2cc(O)cc(O)c12 [Datiscetin] | 22 ± 2 | 1.74 ± 0.02 |  | Second order rate constants (k2) for the reduction of galvinoxyl radical ([1]; listed as datiscetin): 22 mol^−1 dm^3 s^−1; reduction in rate constant relative to kaempferol ([1]; fold reduction, versus kaempferol): 56 fold; Reaction Stoichiometry for the reduction of galvinoxyl radical ([2]; listed as datiscetin): ~1.8
O=c1c(O)c(-c2ccc(O)c(O)c2)oc2cc(O)ccc12 [Fisetin] | 1623 ± 199 | 3.68 ± 0.03 |  | 
O=c1c(O)c(-c2ccccc2)oc2cc(O)cc(O)c12 [Galangin] | 18 ± 1 | 1.01 ± 0.03 |  | reactivity with galvinoxyl (in words) [1]: reacted only very slowly
COc1ccc([C@@H]2CC(=O)c3c(O)cc(O)cc3O2)cc1O [Hesperitin] | 6 ± 0.5 | 0.20 ± 0.02 |  | reactivity with galvinoxyl (in words) [1]: little reactivity
O=c1cc(-c2ccc(O)c(O)c2)oc2cc(O)cc(O)c12 [Luteolin] | 1212 ± 45 | 3.24 ± 0.01 |  | 
O=c1c(O)c(-c2ccc(O)cc2O)oc2cc(O)cc(O)c12 [Morin] | 10134 ± 459 | 1.83 ± 0.01 |  | Second order rate constants (k2) for the reduction of galvinoxyl radical ([1]; listed as morin): 10134 mol^−1 dm^3 s^−1; reactivity with galvinoxyl (in words) [1]: fastest; increase in rate relative to kaempferol ([1]; fold increase, versus kaempferol): 8 fold; Reaction Stoichiometry for the reduction of galvinoxyl radical ([2]; listed as morin): 1.8
O=c1c(O)c(-c2cc(O)c(O)c(O)c2)oc2cc(O)cc(O)c12 [Myricetin] | 14463 ± 1767 | 4.08 ± 0.01 | 147.6 and 147.6306 | reactivity with galvinoxyl (in words) [1]: fastest; Reaction Stoichiometry for the reduction of galvinoxyl radical ([2]; listed as myricetin): 4.1; membrane protection against TBARS production (in words) [3]: almost no protection
O=c1c(O)c(-c2ccc(O)c(O)c2)oc2cc(O)cc(O)c12 [Quercetin] | 2383 ± 258 | 3.27 ± 0.04 |  | change of rate constant compared with luteolin (in words) ([1]; versus luteolin): doubling; Reaction Stoichiometry for the reduction of galvinoxyl radical ([2]; listed as quercetin): 3.3
COc1ccc(-c2oc3cc(O)cc(O)c3c(=O)c2O)cc1O [Tamarixetin] | 165 ± 20 | 1.14 ± 0.03 |  | decrease in rate of reaction with galvinoxyl relative to quercetin [1]: 15 fold
COc1cc(-c2oc3cc(O)cc(O)c3c(=O)c2O)cc(OC)c1OC [Tri-Ome-Myricetin, myricetin-3′,4′,5′-trimethylether] | 74 ± 14 | 1.06 ± 0.02 |  | 
Cc1c(C)c2c(c(C)c1O)CC[C@@](C)(CCC[C@H](C)CCC[C@H](C)CCCC(C)C)O2 [Vitamin E, d-(2R,4′R,8′R)-α-Tocopherol] | 524 ± 48 | 2.14 ± 0.12 |  | TBARS production (Mean) ([3]; listed as da-toc): 19.9996 and 20
CCc1ccc2c(=O)c(O)c(-c3cc(O)c(O)c(O)c3)oc2c1 [compound 9c, 7-Ethyl-3-hydroxy-2-(3,4,5-trihydroxy-phenyl)-chromen-4-one] |  |  | 117.461 | 
CCCCCCCCCCCCc1ccc2c(=O)c(O)c(-c3cc(O)c(O)c(O)c3)oc2c1 [compound 9h, 3-Hydroxy-2-(3,4,5-trihydroxy-phenyl)-7-dodecyl-chromen-4-one] |  |  | 62.1021 | 
CC(C)CCCC(C)CCCC(C)CCc1ccc2c(=O)c(O)c(-c3cc(O)c(O)c(O)c3)oc2c1 (stereo not drawn) [compound 9i*, 3-Hydroxy-2-(3,4,5-trihydroxy-phenyl)-7-(3,7,11-trimethyl-dodecyl)-chromen-4-one] |  |  | 32.9769 | 
CCCCCCCCCCCCCCCCCCc1ccc2c(=O)c(O)c(-c3cc(O)c(O)c(O)c3)oc2c1 [compound 9j, 3-Hydroxy-7-octadecyl-2-(3,4,5-trihydroxy-phenyl)-chromen-4-one] |  |  | 107.849 | 
CCCCCCCCCCc1ccc2oc(-c3cc(O)c(O)c(O)c3)c(O)c(=O)c2c1 [compound 11g, 6-Decyl-3-hydroxy-2-(3,4,5-trihydroxy-phenyl)-chromen-4-one] |  |  | 81.82 | 
CCCCCCCCc1cc2c(=O)c(O)c(-c3cc(O)c(O)c(O)c3)oc2cc1CC [compound 12, 7-Ethyl-3-hydroxy-6-octyl-2-(3,4,5-trihydroxy-phenyl)-chromen-4-one] |  |  | 53.98 | 
CCCCCCCCCCc1ccc2c(=O)c(O)c(-c3cc(O)c(O)cc3O)oc2c1 [compound 13g, 3,2′,4′,5′-tetrahydroxy-7-decyl-flavone] |  |  | 20.1401 | membrane protection against TBARS production (in words) [3]: good membrane protection
CCCCCCCCCc1cccc2c(=O)c(O)c(-c3cc(O)c(O)cc3O)oc12 [compound 14] |  |  | 104.4307 | 
Catechin | 1574 ± 79 | 2.96 ± 0.01 |  | 
